Experiment [1] concerns the target full-length human PIKFYVE (GST-PIKFYVE) (Homo sapiens (Human), UniProt Q9Y2I7, L932S/Q1183K/Q995L/S1033A/S696N/T998S). The experiment in a line: PIKfyve biochemical assay (ADP-Glo Kinase assay, Carna Biosciences). To be noted: ADP-Glo, full-length human PIKFYVE; read-out: hPIKfyve IC50. The source says:
PIKfyve Biochemical Assay. The biochemical PIKFyve inhibition assays were run by Carna Biosciences according to proprietary methodology based on the Promega ADP-Glo™ Kinase assay. A full-length human PIKFYVE [1-2098(end) amino acids and S696N, L932S, Q995L, T998S, S1033A and Q1183K of the protein having the sequence set forth in NCBI Reference Sequence No. NP_055855.2] was expressed as N-terminal GST-fusion protein (265 kDa) using baculovirus expression system. GST-PIKFYVE was purified by using glutathione sepharose chromatography and used in an ADP-Glo™ Kinase assay (Promega). Reactions were set up by adding the test compound solution, substrate solution, ATP solution and kinase solution, each at 4× final concentrations. Reactions were prepared with assay buffer (50 mM MOPS, 1 mM DTT, pH7.2), mixed, and incubated in black 384 well polystyrene plates for 1 hour at room temperature. ADP-Glo™ reagent was then added for 40 minutes, followed by kinase detection reagent for an additional 40 minutes. The kinase activity was evaluated by detecting relative light units on a luminescence plate reader. Samples were run in duplicate from 10 μM to 3 nM. […] IC50 values were calculated from concentration vs % inhibition curves by fitting to a four-parameter logistic curve.
The biochemical PIKFyve inhibition assays were run by Carna Biosciences according to proprietary methodology based on the Promega ADP-Glo™ Kinase assay. A full-length human PIKFYVE [1-2098(end) amino acids and S696N, L932S, Q995L, T998S, S1033A and Q1183K of accession number NP_055855.2] was expressed as N-terminal GST-fusion protein (265 kDa) using baculovirus expression system. GST-PIKFYVE was purified by using glutathione sepharose chromatography and used in an ADP-Glo™ Kinase assay (Promega).
Reactions were set up by adding the test compound solution, substrate solution, ATP solution and kinase solution, each at 4× final concentrations. Reactions were prepared with assay buffer (50 mM MOPS, 1 mM DTT, pH7.2), mixed, and incubated in black 384 well polystyrene plates for 1 hour at room temperature. ADP-Glo™ reagent was then added for 40 minutes, followed by kinase detection reagent for an additional 40 minutes. The kinase activity was evaluated by detecting relative light units on a luminescence plate reader. Samples were run in duplicate from 10 uM to 3 nM. […] IC50 values were calculated from concentration vs % inhibition curves by fitting to a four-parameter logistic curve.
(In general: In ADP-Glo the light output rises with the ADP produced.)

The target of experiment [2] is PIKfyve (PIKFYVE-NanoLuc fusion in HEK293 cells) (Homo sapiens (Human), UniProt Q9Y2I7). The experiment in a line: NanoBRET TE Intracellular Kinase Assay, K-8 (Promega) cell-based assay. To be noted: 2 hours, read-out: hPIKfyve BRET IC50. The procedure: NanoBRET™ TE Intracellular Kinase Assay, K-8 (Promega) Cell-Based Assay. Intracellular inhibition of PIKfyve was assayed using Promega's NanoBRET™ TE Intracellular Kinase Assay, K-8 according to manufacturer's instructions. A dilution series of test compounds was added for 2 hours to HEK293 cells transfected for a minimum of 20 hours with PIKFYVE-NanoLuc® Fusion Vector (Promega) containing a full-length PIKfyve according to manufacturer's specifications in a 96-well plate. Kinase activity was detected by addition of a NanoBRET™ tracer reagent, which was a proprietary PIKfyve inhibitor appended to a fluorescent probe (BRET, bioluminescence resonance energy transfer). Test compounds were tested at concentrations of 10, 3, 1, 0.3, 0.1, 0.03, 0.01, 0.003 μM. BRET signals were measured by a GloMax®Discover Multimode Microplate Reader (Promega) using 0.3 sec/well integration time, 450BP donor filter and 600LP acceptor filters. Active test compounds that bound PIKfyve and displaced the tracer reduced BRET signal. IC50 values were then calculated by fitting the data to the normalized BRET ratio.
Chain of PIKfyve (PIKFYVE-NanoLuc fusion in HEK293 cells) (Q9Y2I7 whole entry, the tested form may be a part): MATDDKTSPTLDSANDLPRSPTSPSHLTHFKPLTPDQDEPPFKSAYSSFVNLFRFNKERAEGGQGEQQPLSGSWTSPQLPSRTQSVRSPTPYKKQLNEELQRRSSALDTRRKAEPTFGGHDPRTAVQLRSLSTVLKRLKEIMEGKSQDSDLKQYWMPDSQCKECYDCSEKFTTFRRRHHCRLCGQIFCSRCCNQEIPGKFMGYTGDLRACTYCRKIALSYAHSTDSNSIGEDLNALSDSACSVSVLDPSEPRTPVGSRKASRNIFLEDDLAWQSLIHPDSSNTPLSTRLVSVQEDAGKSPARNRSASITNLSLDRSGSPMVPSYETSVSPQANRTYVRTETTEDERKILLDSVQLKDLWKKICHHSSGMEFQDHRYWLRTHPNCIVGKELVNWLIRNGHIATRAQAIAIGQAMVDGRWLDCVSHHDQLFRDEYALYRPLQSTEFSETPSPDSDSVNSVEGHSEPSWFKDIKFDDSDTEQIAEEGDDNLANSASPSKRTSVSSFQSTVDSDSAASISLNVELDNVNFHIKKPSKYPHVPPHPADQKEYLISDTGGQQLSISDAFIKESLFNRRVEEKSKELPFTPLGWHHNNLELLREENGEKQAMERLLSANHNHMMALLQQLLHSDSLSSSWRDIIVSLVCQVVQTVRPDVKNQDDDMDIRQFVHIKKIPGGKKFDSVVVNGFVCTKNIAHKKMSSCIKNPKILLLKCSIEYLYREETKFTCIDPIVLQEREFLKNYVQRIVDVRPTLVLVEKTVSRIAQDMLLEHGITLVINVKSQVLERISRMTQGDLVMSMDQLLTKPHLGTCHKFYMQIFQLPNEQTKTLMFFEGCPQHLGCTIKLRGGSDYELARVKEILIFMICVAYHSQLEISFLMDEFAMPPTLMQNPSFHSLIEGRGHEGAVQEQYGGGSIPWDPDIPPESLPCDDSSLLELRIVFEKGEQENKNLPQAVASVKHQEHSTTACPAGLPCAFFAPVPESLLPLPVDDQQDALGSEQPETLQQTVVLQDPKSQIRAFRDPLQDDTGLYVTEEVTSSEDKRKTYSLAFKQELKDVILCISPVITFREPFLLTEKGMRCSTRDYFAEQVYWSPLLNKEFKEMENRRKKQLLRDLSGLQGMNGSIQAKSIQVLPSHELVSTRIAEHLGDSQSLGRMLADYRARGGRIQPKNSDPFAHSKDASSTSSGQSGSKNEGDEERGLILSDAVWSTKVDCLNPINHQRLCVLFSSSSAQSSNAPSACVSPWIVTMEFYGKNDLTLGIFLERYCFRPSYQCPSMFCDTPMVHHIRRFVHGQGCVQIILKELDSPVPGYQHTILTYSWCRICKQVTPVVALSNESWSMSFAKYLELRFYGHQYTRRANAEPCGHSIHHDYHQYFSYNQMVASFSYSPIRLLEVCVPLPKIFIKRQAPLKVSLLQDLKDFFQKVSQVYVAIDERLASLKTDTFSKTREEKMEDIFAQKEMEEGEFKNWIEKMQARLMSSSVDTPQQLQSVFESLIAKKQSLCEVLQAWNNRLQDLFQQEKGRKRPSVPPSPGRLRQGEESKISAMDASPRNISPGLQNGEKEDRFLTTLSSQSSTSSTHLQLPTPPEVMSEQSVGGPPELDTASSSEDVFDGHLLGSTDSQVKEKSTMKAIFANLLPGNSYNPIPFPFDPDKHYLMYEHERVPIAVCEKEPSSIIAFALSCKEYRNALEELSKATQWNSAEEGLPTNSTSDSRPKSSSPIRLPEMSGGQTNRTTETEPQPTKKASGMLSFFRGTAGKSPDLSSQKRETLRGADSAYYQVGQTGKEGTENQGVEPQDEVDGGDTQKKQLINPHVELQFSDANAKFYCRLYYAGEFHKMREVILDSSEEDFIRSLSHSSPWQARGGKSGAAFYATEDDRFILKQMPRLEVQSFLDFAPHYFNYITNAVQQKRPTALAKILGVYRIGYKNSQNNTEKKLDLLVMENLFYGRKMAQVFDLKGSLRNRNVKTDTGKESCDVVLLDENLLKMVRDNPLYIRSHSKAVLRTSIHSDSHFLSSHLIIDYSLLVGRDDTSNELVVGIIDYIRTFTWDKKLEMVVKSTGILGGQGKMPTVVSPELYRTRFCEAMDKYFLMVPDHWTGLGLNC
(In BRET a luciferase serves as donor, and the signal depends on an acceptor being close.)

Some results are limits rather than exact numbers.

Chain of full-length human PIKFYVE (GST-PIKFYVE) (Q9Y2I7 whole entry S696N/L932S/Q995L/T998S/S1033A/Q1183K, the tested form may be a part): as the sequence (Q9Y2I7 whole entry, the tested form may be a part) above, with S696N, L932S, Q995L, T998S, S1033A, Q1183K counted along it

`C1=C(c2cnc3c(N4CCOCC4)nc(-n4ccc(-c5ccccc5)n4)nc3c2)CCOC1` [compound 21, 4-(7-(3,6-dihydro-2H-pyran-4-yl)-2-(3-phenyl-1H-pyrazol-1-yl)pyrido[3,2-d]pyrimidin-4-yl)morpholine]: the IC50 in experiment [1] and in experiment [2] was 10 to 100 nM throughout.
As to `c1ccc(-c2ccn(-c3nc(N4CCOCC4)c4ncc(C5CCCO5)cc4n3)n2)cc1` (centres unmarked) [compound 22, 4-(2-(3-phenyl-1H-pyrazol-1-yl)-7-(tetrahydrofuran-2-yl)pyrido[3,2-d]pyrimidin-4-yl)morpholine], the IC50 in experiment [1] lay in the range of 10 to 100 nM; in experiment [2], 100 to 1000 nM.
Consider `c1ccc(-c2ccn(-c3nc(N4CCOCC4)c4ncc(C5CCCCO5)cc4n3)n2)cc1` (centres unmarked) [compound 18, 4-(2-(3-Phenyl-1H-pyrazol-1-yl)-7-(tetrahydro-2H-pyran-2-yl)pyrido[3,2-d]pyrimidin-4-yl)morpholine], for which the IC50 in experiment [1] is 10 to 100 nM; in experiment [2] it was 100 to 1000 nM.
Regarding `Cc1cccc(-c2cc(O)n(-c3nc(N4CCOCC4)c4ncccc4n3)n2)c1` [compound 26, 1-(4-morpholinopyrido[3,2-d]pyrimidin-2-yl)-3-m-tolyl-1H-pyrazol-5-ol], the results for the IC50 in experiment [1] and in experiment [2] were 10 to 100 nM and 100 to 1000 nM, respectively.
The corresponding values for `c1ccc(-c2nccc(-c3nc(N4CCOCC4)c4ncccc4n3)n2)cc1` [compound 39, 4-(2-(2-phenylpyrimidin-4-yl)pyrido[3,2-d]pyrimidin-4-yl)morpholine] are < 10 nM and 100 to 1000 nM.
Consider `c1ccc(-c2ccn(-c3nc(N4CCOCC4)c4ncc(C5CCOCC5)cc4n3)n2)cc1` [compound 20, 4-[2-(3-phenylpyrazol-1-yl)-7-tetrahydropyran-4-yl-pyrido[3,2-d]pyrimidin-4-yl]morpholine], for which the IC50 in experiment [1] was 10 to 100 nM; in experiment [2] it was 100 to 1000 nM.
Turning to `Cc1cccc(/C=N/Nc2nc(N3CCOCC3)c3ncccc3n2)c1` [compound 24, (E)-4-(2-(2-(3-methylbenzylidene)hydrazinyl)pyrido[3,2-d]pyrimidin-4-yl)morpholine], the IC50 in experiment [1] and in experiment [2] was 10 to 100 nM each time.

The IC50 is the point on the concentration scale where inhibition reaches its midpoint.

For the origin of these results see patent US20240208964A1, “PYRIDOPYRIMIDINES AND METHODS OF THEIR USE” (PYRIDOPYRIMIDINES AND METHODS OF THEIR USE, priority 2020, published 2024).
